# Laboratory results: the supplement of paper PMC10307832
# Compound: O=C(/C=C/c1ccccc1)NC(NC(=S)Nc1cccc2cccnc12)C(Cl)(Cl)Cl [Salubrinal] + O=C(CCCCCCC(=O)Nc1ccccc1)NO [Vorinostat] (partner 1 µM)
# Assay: relative viability (nuclei count vs DMSO), 5 days (fraction); higher = more cells survive
# Details: first compound 0.08 µM
# Outline: (§1)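 Lung cancer cell lines in 1536-well plates got either a single drug or a fixed anchor-drug dose together with five library-drug doses (not always all listed) in √10 steps, by pin tool, on the day after seeding. Nuclei were counted after 5 days, and relative viability is the treated-to-vehicle ratio of nuclei counts. Values are medians of duplicate plates.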
row,Cell Line,relative viability
1,HOP-62,0.657
2,LU99A,0.621
3,BEN,0.52
4,HARA,0.617
5,HCC-78,0.473
6,NCI-H322M,0.909
7,LCLC-97TM1,0.751
8,NCI-H2009,0.815
9,A-427,0.859
10,NCI-H441,0.824
11,NCI-H661,0.839
12,NCI-H1734,0.834
13,NCI-H460,1.18
14,NCI-H2347,0.558
15,SK-LU-1,0.754
16,201T,1.08
17,NCI-H1915,0.516
18,HCC-827,0.838
19,LXF-289,0.897
20,NCI-H23,0.784
21,NCI-H647,0.546
22,CAL-12T,0.903
23,NCI-H1651,0.597
24,EPLC-272H,0.464
25,NCI-H2228,0.99
26,NCI-H1355,0.684
27,NCI-H3122,1.16

# Same assay, conditions: first compound 0.253 µM
row,Cell Line,relative viability
1,HOP-62,0.498
2,LU99A,0.481
3,BEN,0.543
4,HARA,0.631
5,HCC-78,0.446
6,NCI-H322M,0.85
7,LCLC-97TM1,0.739
8,NCI-H2009,0.785
9,A-427,0.905
10,NCI-H441,0.563
11,NCI-H661,0.739
12,NCI-H1734,0.801
13,NCI-H460,0.74
14,NCI-H2347,0.514
15,SK-LU-1,0.668
16,201T,0.922
17,HCC-827,0.917
18,LXF-289,0.707
19,NCI-H23,0.614
20,NCI-H647,0.547
21,CAL-12T,0.676
22,NCI-H1651,0.478
23,NCI-H1355,0.636
24,NCI-H3122,1

# Same assay, conditions: first compound 0.8 µM
row,Cell Line,relative viability
1,HOP-62,0.627
2,LU99A,0.578
3,BEN,0.645
4,HARA,0.597
5,HCC-78,0.472
6,NCI-H322M,0.831
7,LCLC-97TM1,1.04
8,NCI-H2009,0.696
9,A-427,0.896
10,NCI-H441,1.18
11,NCI-H661,0.852
12,NCI-H1734,0.916
13,NCI-H460,0.976
14,NCI-H2347,0.608
15,SK-LU-1,0.996
16,201T,1.03
17,NCI-H1915,0.614
18,HCC-827,0.965
19,LXF-289,0.908
20,NCI-H23,0.644
21,NCI-H647,0.773
22,CAL-12T,0.989
23,NCI-H1651,0.669
24,EPLC-272H,0.539
25,NCI-H2228,0.652
26,NCI-H1355,0.715
27,NCI-H3122,0.989

# Same assay, conditions: first compound 2.53 µM
row,Cell Line,relative viability
1,HOP-62,0.563
2,LU99A,0.546
3,BEN,0.507
4,HARA,0.478
5,HCC-78,0.451
6,NCI-H322M,0.89
7,LCLC-97TM1,0.939
8,NCI-H2009,0.693
9,A-427,0.814
10,NCI-H441,0.605
11,NCI-H661,0.806
12,NCI-H1734,0.77
13,NCI-H460,0.713
14,NCI-H2347,0.686
15,SK-LU-1,0.779
16,201T,1.03
17,NCI-H1915,0.521
18,HCC-827,0.788
19,LXF-289,0.873
20,NCI-H23,0.486
21,NCI-H647,0.504
22,CAL-12T,0.681
23,NCI-H1651,0.527
24,EPLC-272H,0.427
25,NCI-H2228,0.659
26,NCI-H1355,0.657
27,NCI-H3122,1.05

# Same assay, conditions: first compound 8 µM
row,Cell Line,relative viability
1,HOP-62,0.616
2,LU99A,0.513
3,BEN,0.571
4,HARA,0.475
5,HCC-78,0.441
6,NCI-H322M,0.85
7,LCLC-97TM1,0.656
8,NCI-H2009,0.657
9,A-427,0.827
10,NCI-H441,0.616
11,NCI-H661,0.793
12,NCI-H1734,0.745
13,NCI-H460,0.511
14,NCI-H2347,0.639
15,SK-LU-1,0.664
16,201T,0.933
17,NCI-H1915,0.471
18,HCC-827,0.785
19,LXF-289,0.76
20,NCI-H23,0.69
21,NCI-H647,0.683
22,CAL-12T,0.672
23,NCI-H1651,0.546
24,EPLC-272H,0.336
25,NCI-H2228,0.642
26,NCI-H1355,0.645
27,NCI-H3122,1.09

# Compound: O=C(/C=C/c1ccccc1)NC(NC(=S)Nc1cccc2cccnc12)C(Cl)(Cl)Cl [Salubrinal] + Cc1nc(Nc2ncc(C(=O)Nc3c(C)cccc3Cl)s2)cc(N2CCN(CCO)CC2)n1 [Dasatinib] (partner 0.075 µM)
# Assay: as above
# Details: first compound 0.08 µM
# Outline: as §1
row,Cell Line,relative viability
1,HOP-62,0.662
2,LU99A,0.537
3,BEN,0.34
4,HARA,0.341
5,HCC-78,0.404
6,NCI-H322M,0.267
7,LCLC-97TM1,1.02
8,NCI-H2009,0.288
9,A-427,0.724
10,NCI-H441,0.781
11,NCI-H661,0.995
12,NCI-H1734,0.485
13,NCI-H460,0.641
14,NCI-H2347,0.295
15,SK-LU-1,0.188
16,201T,0.56
17,NCI-H1915,0.359
18,HCC-827,0.357
19,LXF-289,0.173
20,NCI-H23,0.881
21,NCI-H647,0.168
22,CAL-12T,0.543
23,NCI-H1651,0.487
24,EPLC-272H,0.41
25,NCI-H2228,0.568
26,NCI-H1355,0.764
27,NCI-H3122,0.828

# Same assay, conditions: first compound 0.253 µM
row,Cell Line,relative viability
1,HOP-62,0.586
2,LU99A,0.597
3,BEN,0.406
4,HARA,0.29
5,HCC-78,0.343
6,NCI-H322M,0.24
7,LCLC-97TM1,0.731
8,NCI-H2009,0.287
9,A-427,0.643
10,NCI-H441,0.5
11,NCI-H661,0.921
12,NCI-H1734,0.462
13,NCI-H460,0.56
14,NCI-H2347,0.327
15,SK-LU-1,0.22
16,201T,0.596
17,NCI-H1915,0.373
18,HCC-827,0.251
19,LXF-289,0.241
20,NCI-H23,0.942
21,NCI-H647,0.203
22,CAL-12T,0.422
23,NCI-H1651,0.259
24,EPLC-272H,0.324
25,NCI-H2228,0.485
26,NCI-H1355,0.569
27,NCI-H3122,0.869

# Same assay, conditions: first compound 0.8 µM
row,Cell Line,relative viability
1,HOP-62,0.703
2,LU99A,0.688
3,BEN,0.397
4,HARA,0.282
5,HCC-78,0.688
6,NCI-H322M,0.256
7,LCLC-97TM1,1.01
8,NCI-H2009,0.304
9,A-427,0.747
10,NCI-H441,0.756
11,NCI-H661,0.928
12,NCI-H1734,0.574
13,NCI-H460,0.644
14,NCI-H2347,0.317
15,SK-LU-1,0.181
16,201T,0.669
17,NCI-H1915,0.323
18,HCC-827,0.27
19,LXF-289,0.234
20,NCI-H23,0.696
21,NCI-H647,0.235
22,CAL-12T,0.347
23,NCI-H1651,0.452
24,EPLC-272H,0.357
25,NCI-H2228,0.508
26,NCI-H1355,0.806
27,NCI-H3122,0.802

# Same assay, conditions: first compound 2.53 µM
row,Cell Line,relative viability
1,HOP-62,0.742
2,LU99A,0.593
3,BEN,0.313
4,HARA,0.265
5,HCC-78,0.361
6,NCI-H322M,0.265
7,LCLC-97TM1,0.969
8,NCI-H2009,0.278
9,A-427,0.68
10,NCI-H441,0.65
11,NCI-H661,0.871
12,NCI-H1734,0.465
13,NCI-H460,0.565
14,NCI-H2347,0.346
15,SK-LU-1,0.172
16,201T,0.602
17,NCI-H1915,0.298
18,HCC-827,0.326
19,LXF-289,0.236
20,NCI-H23,0.78
21,NCI-H647,0.243
22,CAL-12T,0.264
23,NCI-H1651,0.393
24,EPLC-272H,0.383
25,NCI-H2228,0.528
26,NCI-H1355,0.685
27,NCI-H3122,0.846

# Same assay, conditions: first compound 8 µM
row,Cell Line,relative viability
1,HOP-62,0.478
2,LU99A,0.416
3,BEN,0.308
4,HARA,0.263
5,HCC-78,0.363
6,NCI-H322M,0.274
7,LCLC-97TM1,0.782
8,NCI-H2009,0.235
9,A-427,0.654
10,NCI-H441,0.47
11,NCI-H661,0.86
12,NCI-H1734,0.422
13,NCI-H460,0.422
14,NCI-H2347,0.318
15,SK-LU-1,0.176
16,201T,0.573
17,NCI-H1915,0.345
18,HCC-827,0.393
19,LXF-289,0.15
20,NCI-H23,0.925
21,NCI-H647,0.137
22,CAL-12T,0.23
23,NCI-H1651,0.35
24,EPLC-272H,0.294
25,NCI-H2228,0.431
26,NCI-H1355,0.603
27,NCI-H3122,0.914

# Compound: O=C(/C=C/c1ccccc1)NC(NC(=S)Nc1cccc2cccnc12)C(Cl)(Cl)Cl [Salubrinal] + CC(C)C[C@H](NC(=O)[C@H](Cc1ccccc1)NC(=O)c1cnccn1)B(O)O [Bortezomib] (partner 0.002 µM)
# Assay: as above
# Details: first compound 0.08 µM
# Outline: as §1
row,Cell Line,relative viability
1,HOP-62,0.392
